Assay [1] addresses Sphingosine 1-phosphate receptor 1 (Homo sapiens, UniProt P21453). The assay is described as follows: Fluorescence-based counterscreen assay for S1P4 agonists: Cell-based dose response high throughput screening assay to identify agonists of the Sphingosine 1-Phosphate Receptor 1 (S1P1). [Related pubchem assays (depositor defined):AID1509, AID1523, AID1801, AID463107, AID463118, AID463119, AID463122, AID463123, AID463129, AID463225, AID504400, AID504460]. Format: functional. (In general: A counterscreen serves to expose hits that act by an unwanted route or on another target.)

For assay [2], the target named is T1, Zinc finger protein mex-5 (Caenorhabditis elegans, UniProt Q9XUB2).
T1 sequence (Q9XUB2 whole entry): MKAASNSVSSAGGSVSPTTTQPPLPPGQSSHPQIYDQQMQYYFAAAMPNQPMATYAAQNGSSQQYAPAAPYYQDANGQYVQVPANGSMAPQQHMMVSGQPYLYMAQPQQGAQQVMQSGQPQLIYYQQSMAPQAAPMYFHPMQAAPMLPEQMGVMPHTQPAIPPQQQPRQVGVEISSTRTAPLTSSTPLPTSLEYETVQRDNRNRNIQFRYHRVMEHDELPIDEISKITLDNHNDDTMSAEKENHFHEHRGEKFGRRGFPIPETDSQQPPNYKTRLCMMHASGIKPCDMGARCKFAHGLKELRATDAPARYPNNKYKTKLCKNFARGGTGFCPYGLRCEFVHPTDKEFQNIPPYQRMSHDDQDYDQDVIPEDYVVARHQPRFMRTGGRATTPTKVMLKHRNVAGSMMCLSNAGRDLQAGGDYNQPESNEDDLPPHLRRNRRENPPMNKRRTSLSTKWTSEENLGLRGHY
The assay is described as follows: potency of MEX-5 RNA-binding blockers – biochemical, C. elegans, fluorescence polarization, dose response (AID 1960). Background: Fluorescence polarisation rises when a labelled molecule tumbles more slowly, as on binding a larger partner.

For assay [3], the target named is T2, RNA-binding protein pos-1 (Caenorhabditis elegans, UniProt G5EF15).
T2 sequence (G5EF15 whole entry): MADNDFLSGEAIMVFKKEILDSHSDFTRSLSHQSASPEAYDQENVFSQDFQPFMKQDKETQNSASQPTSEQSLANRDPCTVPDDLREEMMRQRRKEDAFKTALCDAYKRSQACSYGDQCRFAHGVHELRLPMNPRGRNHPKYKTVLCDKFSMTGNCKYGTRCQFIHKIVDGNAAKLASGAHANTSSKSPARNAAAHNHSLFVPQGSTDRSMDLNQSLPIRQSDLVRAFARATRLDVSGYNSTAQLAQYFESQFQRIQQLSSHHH
The assay is described as follows: disruptors of C. elegans POS-1 RNA interaction – biochemical, fluorescence polarization, dose response (AID 1964).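 Also: purified POS-1 fused to maltose binding protein made in E. coli; potency of compounds blocking POS-1 binding to fluorescent RNA.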

Assay [4] has as its target T3, Sphingosine 1-phosphate receptor 4 (Homo sapiens, UniProt O95977).
T3 sequence (O95977 whole entry): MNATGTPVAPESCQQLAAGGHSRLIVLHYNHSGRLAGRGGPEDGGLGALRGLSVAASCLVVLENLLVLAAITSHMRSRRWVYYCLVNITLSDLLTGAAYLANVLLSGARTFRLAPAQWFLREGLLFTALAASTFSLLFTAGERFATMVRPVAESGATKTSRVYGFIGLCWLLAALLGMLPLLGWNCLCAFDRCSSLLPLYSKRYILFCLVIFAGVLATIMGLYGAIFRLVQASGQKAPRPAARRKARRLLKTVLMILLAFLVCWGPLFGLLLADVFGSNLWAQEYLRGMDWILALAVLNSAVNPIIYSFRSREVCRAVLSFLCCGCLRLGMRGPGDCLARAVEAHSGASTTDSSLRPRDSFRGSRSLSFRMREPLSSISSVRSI
As to the kind of experiment: Fluorescence dose response cell-based high throughput screening assay for agonists of the Sphingosine 1-Phosphate Receptor 4 (S1P4). [Related pubchem assays: 1509 (Primary screen.), 1523 (Confirmation screen in triplicates.)]. The format is functional.

Assay [5] deals with T4, E3 ubiquitin-protein ligase XIAP (Homo sapiens, UniProt P98170). The assay is described as follows: small molecules displacing peptide from XIAP – biochemical, IAP family, fluorescence polarization (AID 1018). Format: functional.
T4 sequence (P98170 whole entry): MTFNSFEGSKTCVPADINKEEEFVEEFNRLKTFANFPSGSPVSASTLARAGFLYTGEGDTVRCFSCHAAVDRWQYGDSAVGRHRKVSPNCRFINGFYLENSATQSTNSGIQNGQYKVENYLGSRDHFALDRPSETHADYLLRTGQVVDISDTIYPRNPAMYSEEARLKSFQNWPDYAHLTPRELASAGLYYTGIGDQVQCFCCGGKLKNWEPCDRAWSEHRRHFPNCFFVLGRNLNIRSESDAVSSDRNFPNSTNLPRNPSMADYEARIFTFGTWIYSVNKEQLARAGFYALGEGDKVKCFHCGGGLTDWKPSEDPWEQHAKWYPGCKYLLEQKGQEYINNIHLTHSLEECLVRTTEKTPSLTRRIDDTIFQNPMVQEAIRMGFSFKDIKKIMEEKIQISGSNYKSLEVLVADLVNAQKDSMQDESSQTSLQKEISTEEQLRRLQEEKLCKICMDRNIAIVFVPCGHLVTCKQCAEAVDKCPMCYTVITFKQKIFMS
The target in another assay is Procathepsin L (Homo sapiens, UniProt P07711).
For another assay, the target named is Aspartyl aminopeptidase (Plasmodium falciparum 3D7, UniProt Q8I2J3).
Aspartyl aminopeptidase, sequence (Q8I2J3 whole entry): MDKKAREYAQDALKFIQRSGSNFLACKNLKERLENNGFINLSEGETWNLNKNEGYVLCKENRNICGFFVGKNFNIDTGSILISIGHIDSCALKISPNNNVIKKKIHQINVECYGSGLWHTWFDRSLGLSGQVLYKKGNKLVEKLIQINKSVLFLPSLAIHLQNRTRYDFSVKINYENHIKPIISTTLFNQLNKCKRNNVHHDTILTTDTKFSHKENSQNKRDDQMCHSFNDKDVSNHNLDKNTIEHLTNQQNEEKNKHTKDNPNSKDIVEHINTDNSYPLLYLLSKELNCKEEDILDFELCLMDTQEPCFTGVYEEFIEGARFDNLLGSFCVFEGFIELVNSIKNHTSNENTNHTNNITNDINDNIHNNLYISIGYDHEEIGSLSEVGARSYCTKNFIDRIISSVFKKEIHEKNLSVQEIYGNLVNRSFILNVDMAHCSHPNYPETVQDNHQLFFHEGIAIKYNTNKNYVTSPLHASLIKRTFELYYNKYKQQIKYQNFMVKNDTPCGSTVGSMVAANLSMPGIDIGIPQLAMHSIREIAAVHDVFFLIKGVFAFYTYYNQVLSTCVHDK
Assay [6] concerns the target DNA damage-inducible transcript 3 protein (Mus musculus, UniProt P35639). Format: functional, Cricetulus griseus.
Assay [7] can be described thus: viability loss in HEK293T cells – cell-based, cherry-picks, cytotoxicity control for HIV Vif inhibitor project, dose response (AID 652208). Format: functional.
The target in assay [8] is T4, E3 ubiquitin-protein ligase XIAP. As to the kind of experiment: Counter Screen using XIAP-Bir3 for Chemical Antagonists of Bir1/2 domains of IAP-family anti-apoptotic proteins. [Related pubchem assays (depositor defined):AID1018, AID1449, AID1514, AID1638, AID1749, AID1750, AID488957, AID488963].
For another assay, the target named is T5, X-box-binding protein 1 (Homo sapiens, UniProt P17861).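 Also: confirmatory dose-response counter-screen serving a CHOP assay.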
T5 sequence (P17861 whole entry): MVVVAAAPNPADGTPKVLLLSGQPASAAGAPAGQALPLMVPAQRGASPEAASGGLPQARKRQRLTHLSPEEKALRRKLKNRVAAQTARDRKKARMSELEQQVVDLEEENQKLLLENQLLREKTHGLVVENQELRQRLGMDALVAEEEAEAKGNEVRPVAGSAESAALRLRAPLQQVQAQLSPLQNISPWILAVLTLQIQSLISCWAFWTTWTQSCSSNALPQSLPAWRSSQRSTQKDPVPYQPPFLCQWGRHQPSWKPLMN
The format is functional, Cricetulus griseus.

Assay [9] addresses Peroxisome proliferator-activated receptor gamma/Nuclear receptor coactivator 1 (Homo sapiens, UniProt P37231). The assay is described as follows: TR-FRET dose response biochemical High Throughput Screening assay for agonists of the steroid receptor coactivator 1 (SRC-1) recruitment by the peroxisome proliferator-activated receptor gamma (PPAR gamma): non-selective agonists. [Related pubchem assays (depositor defined):AID1300, AID1808, AID504735, AID631]. Format: protein assay.

Assay [10] deals with Peroxisome proliferator-activated receptor gamma/Nuclear receptor coactivator 3 (Homo sapiens, UniProt P37231). The assay is described as follows: TR-FRET dose response biochemical High Throughput Screening assay for agonists of the steroid receptor coactivator 3 (SRC-3) recruitment by the peroxisome proliferator-activated receptor gamma (PPAR gamma): non-selective agonists. [Related pubchem assays: 1301 (Confirmation screen.), 1048 (Primary screen.)]. The format is functional. (TR-FRET usually uses a lanthanide donor and a delayed reading to cut background.)

The target in a further assay is Troponin, cardiac muscle (Homo sapiens, UniProt P19429+P45379+P63316). The assay is described as follows: Fluorescence-based biochemical high throughput dose response assay for activators of the calcium sensitivity of cardiac Regulated Thin Filaments (RTF). [Related pubchem assays (depositor defined):AID493008, AID493018, AID504382, AID504383]. Format: protein-complex assay.

Assay [11] concerns the target Peroxisome proliferator-activated receptor gamma/Nuclear receptor coactivator 2 (Homo sapiens, UniProt P37231). As to the kind of experiment: TR-FRET dose response biochemical High Throughput Screening assay for agonists of the steroid receptor coactivator 2 (SRC-2) recruitment by the peroxisome proliferator-activated receptor gamma (PPAR gamma): non-selective agonists. [Related pubchem assays: 1297, 1032 ]. Format: functional.

Activity calls are given as the source filed them.

Peroxisome proliferator-activated receptor gamma/Nuclear receptor coactivator 2, sequence (P37231 whole entry): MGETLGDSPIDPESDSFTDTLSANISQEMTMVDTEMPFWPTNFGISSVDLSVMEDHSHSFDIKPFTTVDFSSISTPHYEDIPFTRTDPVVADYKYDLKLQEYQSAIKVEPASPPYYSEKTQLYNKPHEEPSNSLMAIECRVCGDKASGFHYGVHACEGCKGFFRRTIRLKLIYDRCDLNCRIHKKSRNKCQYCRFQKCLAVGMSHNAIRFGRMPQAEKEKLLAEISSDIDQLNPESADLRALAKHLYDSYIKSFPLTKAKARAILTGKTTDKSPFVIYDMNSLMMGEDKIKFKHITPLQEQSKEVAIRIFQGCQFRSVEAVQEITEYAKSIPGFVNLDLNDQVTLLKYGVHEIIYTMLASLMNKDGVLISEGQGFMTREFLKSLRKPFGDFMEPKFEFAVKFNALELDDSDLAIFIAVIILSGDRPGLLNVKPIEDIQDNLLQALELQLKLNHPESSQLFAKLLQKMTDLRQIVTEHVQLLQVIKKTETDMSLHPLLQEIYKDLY
Peroxisome proliferator-activated receptor gamma/Nuclear receptor coactivator 2, sequence (Q15596 whole entry, further chain): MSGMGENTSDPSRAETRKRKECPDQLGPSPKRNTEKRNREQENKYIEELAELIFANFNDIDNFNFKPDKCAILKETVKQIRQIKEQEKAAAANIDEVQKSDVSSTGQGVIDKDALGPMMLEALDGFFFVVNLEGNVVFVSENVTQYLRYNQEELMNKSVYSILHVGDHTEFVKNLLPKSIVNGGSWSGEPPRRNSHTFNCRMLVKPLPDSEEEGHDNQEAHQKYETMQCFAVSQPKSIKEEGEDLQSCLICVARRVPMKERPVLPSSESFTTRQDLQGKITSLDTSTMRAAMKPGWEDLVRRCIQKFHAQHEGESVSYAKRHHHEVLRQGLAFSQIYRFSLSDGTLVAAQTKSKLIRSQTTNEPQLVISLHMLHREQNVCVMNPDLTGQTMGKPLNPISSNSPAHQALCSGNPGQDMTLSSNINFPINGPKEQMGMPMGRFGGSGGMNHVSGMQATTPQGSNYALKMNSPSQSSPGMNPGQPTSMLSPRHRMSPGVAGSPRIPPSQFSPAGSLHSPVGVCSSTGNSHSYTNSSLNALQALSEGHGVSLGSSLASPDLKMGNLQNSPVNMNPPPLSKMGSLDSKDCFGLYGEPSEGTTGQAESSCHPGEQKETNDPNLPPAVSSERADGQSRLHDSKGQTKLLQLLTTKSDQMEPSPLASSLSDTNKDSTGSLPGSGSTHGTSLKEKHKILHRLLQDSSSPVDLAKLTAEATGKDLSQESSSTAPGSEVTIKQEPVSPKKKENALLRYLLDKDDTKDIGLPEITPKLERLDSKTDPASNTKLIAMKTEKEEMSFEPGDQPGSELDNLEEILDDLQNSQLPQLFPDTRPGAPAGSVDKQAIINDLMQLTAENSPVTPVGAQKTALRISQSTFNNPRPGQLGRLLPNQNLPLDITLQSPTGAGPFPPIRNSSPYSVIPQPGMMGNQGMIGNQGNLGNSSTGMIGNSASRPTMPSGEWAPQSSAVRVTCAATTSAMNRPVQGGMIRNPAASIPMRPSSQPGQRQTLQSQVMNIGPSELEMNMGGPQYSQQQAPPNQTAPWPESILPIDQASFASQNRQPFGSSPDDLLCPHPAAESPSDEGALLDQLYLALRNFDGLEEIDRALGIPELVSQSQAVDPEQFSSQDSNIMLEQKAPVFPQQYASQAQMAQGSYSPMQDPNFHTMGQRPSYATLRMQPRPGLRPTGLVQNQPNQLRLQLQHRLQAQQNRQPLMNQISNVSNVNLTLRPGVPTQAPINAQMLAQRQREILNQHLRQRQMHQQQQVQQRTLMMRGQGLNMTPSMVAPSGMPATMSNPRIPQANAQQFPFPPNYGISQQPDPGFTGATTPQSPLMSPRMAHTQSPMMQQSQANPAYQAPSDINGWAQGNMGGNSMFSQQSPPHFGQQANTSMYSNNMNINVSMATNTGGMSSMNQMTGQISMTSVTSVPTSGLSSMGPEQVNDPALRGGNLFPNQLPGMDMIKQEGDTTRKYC
Peroxisome proliferator-activated receptor gamma/Nuclear receptor coactivator 1, sequence (P37231 whole entry): as the sequence (P37231 whole entry) above
Peroxisome proliferator-activated receptor gamma/Nuclear receptor coactivator 1, sequence (Q15788 whole entry, further chain): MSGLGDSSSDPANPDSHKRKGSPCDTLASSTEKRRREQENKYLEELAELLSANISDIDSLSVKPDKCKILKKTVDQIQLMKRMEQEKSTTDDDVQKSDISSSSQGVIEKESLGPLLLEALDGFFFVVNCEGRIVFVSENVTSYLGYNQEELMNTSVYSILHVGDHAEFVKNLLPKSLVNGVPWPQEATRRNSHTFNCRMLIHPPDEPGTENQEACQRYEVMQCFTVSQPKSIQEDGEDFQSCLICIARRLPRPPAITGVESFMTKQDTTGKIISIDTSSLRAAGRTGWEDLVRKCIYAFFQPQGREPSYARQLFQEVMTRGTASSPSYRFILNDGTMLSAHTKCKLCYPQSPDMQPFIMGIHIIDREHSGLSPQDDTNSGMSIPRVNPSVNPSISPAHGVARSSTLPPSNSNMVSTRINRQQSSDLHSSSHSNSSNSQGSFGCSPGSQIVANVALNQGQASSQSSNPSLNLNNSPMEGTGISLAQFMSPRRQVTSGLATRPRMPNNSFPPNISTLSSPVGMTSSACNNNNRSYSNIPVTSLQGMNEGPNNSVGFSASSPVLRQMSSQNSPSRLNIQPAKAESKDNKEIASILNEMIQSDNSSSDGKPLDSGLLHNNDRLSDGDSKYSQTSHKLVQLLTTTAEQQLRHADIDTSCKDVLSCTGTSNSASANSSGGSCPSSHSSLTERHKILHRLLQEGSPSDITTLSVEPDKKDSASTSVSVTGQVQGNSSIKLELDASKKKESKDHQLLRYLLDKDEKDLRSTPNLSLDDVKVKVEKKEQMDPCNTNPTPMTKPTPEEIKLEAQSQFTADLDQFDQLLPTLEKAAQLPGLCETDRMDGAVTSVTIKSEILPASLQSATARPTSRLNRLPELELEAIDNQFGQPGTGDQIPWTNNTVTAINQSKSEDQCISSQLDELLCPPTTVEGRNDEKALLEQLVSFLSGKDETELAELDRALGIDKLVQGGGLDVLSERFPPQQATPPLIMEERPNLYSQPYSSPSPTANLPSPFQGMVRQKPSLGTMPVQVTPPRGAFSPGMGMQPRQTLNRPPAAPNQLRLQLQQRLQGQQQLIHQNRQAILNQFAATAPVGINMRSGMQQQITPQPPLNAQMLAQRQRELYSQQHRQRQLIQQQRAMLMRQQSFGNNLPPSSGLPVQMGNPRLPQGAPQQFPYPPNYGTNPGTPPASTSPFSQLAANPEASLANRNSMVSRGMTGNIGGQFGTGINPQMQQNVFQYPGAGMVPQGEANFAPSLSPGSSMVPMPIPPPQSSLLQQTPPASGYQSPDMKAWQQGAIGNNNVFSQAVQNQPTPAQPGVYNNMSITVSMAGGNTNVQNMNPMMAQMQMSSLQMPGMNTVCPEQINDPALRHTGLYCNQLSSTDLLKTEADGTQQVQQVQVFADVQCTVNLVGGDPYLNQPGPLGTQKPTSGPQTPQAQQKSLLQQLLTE

In the case of `CCOC(=O)c1c(-n2c(C)cc(C=C3C(=O)NC(=O)NC3=O)c2C)sc2c1CCCC2`, the EC50 (in general, the midpoint of the concentration-response curve) in assay [1] is > 49.8 µM (inactive); in assay [2], > 300 µM (inconclusive); in [3] it was > 300 µM (inconclusive); in assay [4], > 16.6 µM (not active).

Turning to `Cc1cc(NC(=O)NC2(C(F)(F)F)Oc3ccc(Cl)cc3O2)no1` (stereo not given), the IC50 (usually the concentration that gives 50% inhibition) was > 100 µM (not active) in assay [5], > 59.6 µM (not active) against Procathepsin L, 1.69 µM (active) at Aspartyl aminopeptidase and > 100 µM (inactive) in assay [8]. The “Absolute IC50 (CHOP)” value in [6] came out at 10 µM. Besides, the AC50 (in general, the concentration giving half of the maximal activity seen) in [7] was 38 µM (active). The “Absolute IC50 (XBP1)” value on X-box-binding protein 1 is under 10 µM.

Turning to `CNC(=S)N1N=C(c2ccc(Br)cc2)CC1c1ccc(N(C)C)cc1` (stereo not given), the EC50 in [9] was 11.6 µM (inactive); in [10], > 79.4 µM (not active); on Troponin, cardiac muscle, 40 µM (inactive); in [11], 14 µM (not active).

The record behind these values is ChEMBL document CHEMBL1201862, “PubChem BioAssay data set” (2004).
